Results reported in the supplement of paper PMC10307832.

Experiments:
Experiment in all cases: relative viability (nuclei count vs DMSO), 5 days (fraction); higher = more cells survive
[1] = compound: CN[C@@H]1C[C@H]2O[C@@](C)([C@@H]1OC)n1c3ccccc3c3c4c(c5c6ccccc6n2c5c31)C(=O)NC4 [Staurosporine] + C[C@@H](Oc1cc(-c2cnn(C3CCNCC3)c2)cnc1N)c1c(Cl)ccc(F)c1Cl [Crizotinib] (partner 1 µM)
Procedure, shortened: (§1)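 One day after seeding in 1536-well plates, lung cancer cell lines were dosed by pin tool. Dosing was either single-drug or a fixed anchor-drug dose plus five library-drug doses (not always all listed) in √10 steps. After 5 days, nuclei were stained in one fix-and-stain step and counted on 4× images, and relative viability is the nuclei count of treated wells over that of vehicle wells, given as the median of duplicate plates.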

[2] = compound: O=c1[nH]cc(F)c(=O)[nH]1 [5-Fluorouracil] + C[C@@H](Oc1cc(-c2cnn(C3CCNCC3)c2)cnc1N)c1c(Cl)ccc(F)c1Cl [Crizotinib] (partner 1 µM)
Procedure, shortened: as §1

[3] = compound: O=c1[nH]cc(F)c(=O)[nH]1 [5-Fluorouracil] + CCNC(=O)c1noc(-c2cc(C(C)C)c(O)cc2O)c1-c1ccc(CN2CCOCC2)cc1 [Luminespib] (partner 0.01 µM)
Procedure, shortened: as §1

[4] = compound: O=c1[nH]cc(F)c(=O)[nH]1 [5-Fluorouracil] + Nc1nc2[nH]cc(CCc3ccc(C(=O)N[C@@H](CCC(=O)O)C(=O)O)cc3)c2c(=O)[nH]1 [Pemetrexed] (partner 0.2 µM)
Procedure, shortened: as §1

Cell Line	relative viability ([1]; first compound 0.005 µM)	relative viability ([1]; first compound 0.01581 µM)	relative viability ([1]; first compound 0.05 µM)	relative viability ([1]; first compound 0.1581 µM)	relative viability ([1]; first compound 0.5 µM)	relative viability ([2]; first compound 0.02 µM)	relative viability ([2]; first compound 0.2 µM)	relative viability ([2]; first compound 0.6325 µM)	relative viability ([2]; first compound 2 µM)	relative viability ([3]; first compound 0.02 µM)	relative viability ([3]; first compound 0.2 µM)	relative viability ([3]; first compound 0.6325 µM)	relative viability ([3]; first compound 2 µM)	relative viability ([4]; first compound 0.02 µM)	relative viability ([4]; first compound 0.2 µM)	relative viability ([4]; first compound 0.6325 µM)	relative viability ([4]; first compound 2 µM)
HOP-62	1.02	0.741	0.134	0.144	0.0781	0.938	0.733	0.9	0.781	0.953	0.92	0.853	0.855	0.323	0.361	0.287	0.342
IA-LM	0.253	0.073	0.319	0.148	0.0488	1.03	0.401	0.254	0.289								
LC-2-ad	0.442	0.368	0.266	0.167	0.116	0.431	0.417	0.289	0.216	1.09	0.666	0.407	0.337	0.258	0.286	0.282	0.272
LCLC-97TM1	0.277	0.24	0.234	0.296	0.257	0.349	0.552	0.244	0.171	0.627	0.808	0.613	0.334	0.146	0.218	0.165	0.176
LCLC-103H	1.1	0.741	0.564	0.318	0.258	1.1	1.11	0.883	0.566	0.951	0.999	0.521	0.28	0.481	0.413	0.464	0.384
LK-2	0.18	0.16	0.129	0.0689	0.0939	0.246		0.21	0.221					0.294	0.35	0.264	0.201
LOU-NH91	0.721	0.594	0.493	0.413	0.325	0.798	0.697	0.547	0.341	0.37	0.355	0.332	0.277	0.359	0.342	0.317	0.309
LU99A	0.391	0.308	0.253	0.157	0.118	0.579	0.521	0.521	0.384	0.245	0.281	0.234		0.185	0.177	0.154	0.171
LXF-289	0.751		0.258	0.0796	0.0672	0.793	0.574	0.338	0.277	0.701	0.435	0.251	0.238	0.807	0.704	0.494	0.363
NCI-H23	0.296	0.234	0.193	0.176	0.125	0.613	0.619	0.415	0.305	0.201	0.205	0.196	0.212	0.944	0.63	0.408	0.337
NCI-H322M	0.98	0.666	0.654	0.558	0.433	1.09	0.807	0.699	0.491	0.841	1	0.724	0.552	0.602	0.598	0.549	0.512
NCI-H358	0.386	0.225	0.106	0.116	0.0764	0.965	0.664	0.671	0.282	0.388	0.307	0.308	0.145	0.177	0.182	0.172	0.169
NCI-H441	0.8	0.29	0.3	0.179	0.156	0.511	0.767	0.388	0.333	0.447	0.39	0.384	0.242	0.262	0.27	0.235	0.239
NCI-H460	0.708	0.677	0.0267	0.0065	0.0073	1	0.44	0.186	0.0322	0.0365	0.0336	0.0342	0.0284	0.0627	0.0623	0.0575	0.0952
NCI-H520	0.711	0.448	0.279	0.188	0.11	0.819	0.832	0.6	0.372	0.19	0.236	0.19	0.21	0.625	0.742	0.541	0.41
NCI-H522										1.14	1.19	1.17	0.961	0.891	1.1	1.03	0.95
NCI-H727	0.3	0.322	0.228	0.181	0.164	1.07	1.05	0.891	0.703	0.329	0.402	0.345	0.295				
NCI-H1299	0.516	0.385	0.55	0.163	0.142	0.952	0.976	0.943	0.682								
NCI-H1395										0.638	0.675	0.743	0.658	0.743	0.994	0.902	0.893
NCI-H1623										0.395	0.361	0.412	0.364				
NCI-H1648														0.816	0.864	0.572	0.332
NCI-H1703	0.483	0.253	0.093	0.133	0.0695	0.83	0.564	0.378	0.479								
NCI-H1793										0.205	0.183	0.203	0.176	0.944	0.942	0.695	0.503
NCI-H2342										0.807	0.731	0.616	0.467	0.744	0.84	0.776	0.725
SW 900										0.153	0.161	0.213	0.196	0.468	0.491	0.518	0.385
